# Assays:
# [1] = target: T1, human recombinant 5-HT6 receptor (Homo sapiens, UniProt P50406); assay: Radioligand binding, competition studies with [^3H]LSD
# T1 construct: expressed in transfected cells; host or cells: HeLa
# Excerpt: (§1) Table 1. Binding Profile (pKi values) of GSK215083
# 5-HT6 receptors [2] = assay: PET imaging, saturation of 5-HT6 receptors in the brain
# Experimental: Yorkshire/Danish Landrace porcines (- 40 Kg; n=4) were housed singly in thermostatically controlled (20 °C) and naturally illuminated stalls. The pigs were provided with Soavl® chow (DLG, Denmark) and water ad libitum by trough. Animals were fasted for 24 hours prior to PET examination, with free access to water during this interval. Animals were anaesthetised by induction with ketamine and midazolam (both intramuscular and intravenous (i.v.)) and maintained in deep anaesthesia using isoflurane (1 - 2 %; Abbott, Denmark). The left femoral artery and vein of each animal were surgically cannulated using catheters (Avanti® size 4F-7F). The femoral artery for blood sampling and blood pressure (BP) recordings and the femoral vein for administration of radiolabelled and non-labelled agents. Animals were placed supine in a Siemens ECAT EXACT HR tomograph, with the head immobilised in a custom-made holding device. During the study, blood pH, pCO2 and pO2 levels were monitored and maintained within the normal physiological range. In addition, BP and heart rate were recorded throughout the study. At the end of each study day, the animal was terminated via an intravenous dose of sodium pentobarbital (20 ml). [^11C]GSK215083 was administered intravenously in the femoral vein as a 1 minute bolus injection. PET scanning and arterial blood sampling was commenced upon start of the radioligand administration.
# Four sequential high specific activity iv radioligand ([^11C]GSK215083) administrations were performed in same animal, same day. Following a baseline scan, [^11C] GSK215083 was coadministered with escalating dose of unlabelled GSK215083 (0.005, 0.05 and 0.5mg/kg). [^15O]CO and [^15O]H2O were administered pre and post administration of GSK215083 to monitor and to correct for changes in cerebral blood volume and changes in cerebral blood flow.
# 5-HT2A = 5-HT2A (Homo sapiens, UniProt P28223); assay: Binding profile
# 5-HT1D = 5-HT1D (Homo sapiens, UniProt P28221); assay: Binding profile
# Excerpt: as §1
# 5-HT2C = target: T2, 5-HT2C (Homo sapiens, UniProt P28335); assay: Binding profile
# T2 sequence (P28335 33-458): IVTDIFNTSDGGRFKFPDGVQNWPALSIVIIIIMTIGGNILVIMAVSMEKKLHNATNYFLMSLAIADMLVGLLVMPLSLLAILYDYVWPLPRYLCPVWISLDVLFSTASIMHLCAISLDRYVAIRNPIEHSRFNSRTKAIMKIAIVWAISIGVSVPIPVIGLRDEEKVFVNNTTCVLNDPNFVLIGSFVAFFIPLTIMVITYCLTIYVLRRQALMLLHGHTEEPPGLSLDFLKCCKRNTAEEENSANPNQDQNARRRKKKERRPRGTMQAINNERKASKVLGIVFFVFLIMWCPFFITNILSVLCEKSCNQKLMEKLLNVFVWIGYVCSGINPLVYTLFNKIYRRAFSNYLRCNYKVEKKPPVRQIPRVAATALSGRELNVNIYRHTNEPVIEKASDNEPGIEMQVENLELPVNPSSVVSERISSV
# Excerpt: as §1
# 5-HT1B = 5-HT1B (Homo sapiens, UniProt P28222); assay: Binding profile
# Excerpt: as §1
# 5-HT1A = target: T3, 5-HT1A (Homo sapiens, UniProt P08908); assay: Binding profile
# T3 sequence (P08908 1-422): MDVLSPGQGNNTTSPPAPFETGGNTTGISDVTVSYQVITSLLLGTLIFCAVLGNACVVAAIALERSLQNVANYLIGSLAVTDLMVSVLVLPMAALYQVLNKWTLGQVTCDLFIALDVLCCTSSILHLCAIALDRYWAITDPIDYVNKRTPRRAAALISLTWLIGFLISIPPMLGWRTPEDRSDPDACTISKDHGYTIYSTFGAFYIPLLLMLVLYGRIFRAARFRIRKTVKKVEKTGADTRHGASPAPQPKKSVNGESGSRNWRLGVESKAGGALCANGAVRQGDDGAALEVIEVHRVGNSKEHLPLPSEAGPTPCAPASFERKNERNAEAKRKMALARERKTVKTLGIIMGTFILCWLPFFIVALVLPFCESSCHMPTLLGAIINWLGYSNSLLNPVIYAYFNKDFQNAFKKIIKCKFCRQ
# Excerpt: as §1
# Dopamine D2 = Dopamine D2 (Homo sapiens, UniProt P14416); assay: Binding profile
# Excerpt: as §1
# Dopamine D3 = Dopamine D3 (Homo sapiens, UniProt P35462); assay: Binding profile
# Excerpt: as §1
# 5-HT2B = 5-HT2B (Homo sapiens, UniProt P41595); assay: Binding profile
# Excerpt: as §1
# α1B adrenoreceptor = target: T4, α1B adrenoreceptor (Homo sapiens, UniProt P35368); assay: Binding profile
# T4 sequence (P35368 1-520): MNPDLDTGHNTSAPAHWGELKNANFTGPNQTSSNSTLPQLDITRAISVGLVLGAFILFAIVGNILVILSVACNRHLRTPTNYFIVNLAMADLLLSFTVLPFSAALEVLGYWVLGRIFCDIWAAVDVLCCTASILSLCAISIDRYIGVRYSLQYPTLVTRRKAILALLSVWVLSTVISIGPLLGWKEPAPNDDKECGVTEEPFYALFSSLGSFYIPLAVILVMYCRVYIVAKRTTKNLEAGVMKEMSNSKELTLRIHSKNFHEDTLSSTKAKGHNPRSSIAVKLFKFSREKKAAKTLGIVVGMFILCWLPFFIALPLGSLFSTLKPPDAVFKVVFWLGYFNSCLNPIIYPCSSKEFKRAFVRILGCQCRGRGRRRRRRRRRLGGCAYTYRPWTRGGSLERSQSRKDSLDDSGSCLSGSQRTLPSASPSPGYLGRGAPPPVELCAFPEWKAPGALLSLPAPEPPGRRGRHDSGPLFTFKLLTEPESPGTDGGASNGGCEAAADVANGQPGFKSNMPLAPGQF
# Excerpt: as §1
# 5-HT7 = 5-HT7 (Homo sapiens, UniProt P34969); assay: Binding profile
# Excerpt: as §1
# 5-HT6 receptors [3] = conditions: PET
# Experimental: Yorkshire/Danish Landrace porcines (- 40 Kg; n=4) were housed singly in thermostatically controlled (20 °C) and naturally illuminated stalls. The pigs were provided with Soavl® chow (DLG, Denmark) and water ad libitum by trough. Animals were fasted for 24 hours prior to PET examination, with free access to water during this interval. Animals were anaesthetised by induction with ketamine and midazolam (both intramuscular and intravenous (i.v.)) and maintained in deep anaesthesia using isoflurane (1 - 2 %; Abbott, Denmark). The left femoral artery and vein of each animal were surgically cannulated using catheters (Avanti® size 4F-7F). The femoral artery for blood sampling and blood pressure (BP) recordings and the femoral vein for administration of radiolabelled and non-labelled agents. Animals were placed supine in a Siemens ECAT EXACT HR tomograph, with the head immobilised in a custom-made holding device. During the study, blood pH, pCO2 and pO2 levels were monitored and maintained within the normal physiological range. In addition, BP and heart rate were recorded throughout the study. At the end of each study day, the animal was terminated via an intravenous dose of sodium pentobarbital (20 ml). […] PET scanning and arterial blood sampling was commenced upon start of the radioligand administration.
# [4] = 60min post administration of 0.5mg/kg GSK215083 with [^11C]GSK215083
# [5] = 60 min post coinjection of [^11C]GSK215083 with 0.005mg/kg of GSK215083
# [6] = [^11C]GSK215083 coadministered with 0.05mg/kg of GSK215083
# [7] = baseline scan, 60 min post injection of [^11C]GSK215083
# T1 sequence (P50406 whole entry): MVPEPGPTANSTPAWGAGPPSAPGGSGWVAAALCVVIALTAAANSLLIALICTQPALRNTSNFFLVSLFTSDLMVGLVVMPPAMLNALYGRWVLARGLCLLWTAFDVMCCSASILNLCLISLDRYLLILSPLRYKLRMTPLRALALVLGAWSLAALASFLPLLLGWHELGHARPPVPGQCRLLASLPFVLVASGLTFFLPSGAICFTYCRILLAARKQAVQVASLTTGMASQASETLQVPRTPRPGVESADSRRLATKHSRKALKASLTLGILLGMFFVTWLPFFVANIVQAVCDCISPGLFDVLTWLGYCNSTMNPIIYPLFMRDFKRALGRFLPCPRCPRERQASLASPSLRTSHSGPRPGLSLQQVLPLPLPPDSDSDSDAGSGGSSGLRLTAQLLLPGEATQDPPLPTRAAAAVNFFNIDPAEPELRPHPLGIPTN
# Chain of 5-HT7 (P34969 whole entry, species assumed): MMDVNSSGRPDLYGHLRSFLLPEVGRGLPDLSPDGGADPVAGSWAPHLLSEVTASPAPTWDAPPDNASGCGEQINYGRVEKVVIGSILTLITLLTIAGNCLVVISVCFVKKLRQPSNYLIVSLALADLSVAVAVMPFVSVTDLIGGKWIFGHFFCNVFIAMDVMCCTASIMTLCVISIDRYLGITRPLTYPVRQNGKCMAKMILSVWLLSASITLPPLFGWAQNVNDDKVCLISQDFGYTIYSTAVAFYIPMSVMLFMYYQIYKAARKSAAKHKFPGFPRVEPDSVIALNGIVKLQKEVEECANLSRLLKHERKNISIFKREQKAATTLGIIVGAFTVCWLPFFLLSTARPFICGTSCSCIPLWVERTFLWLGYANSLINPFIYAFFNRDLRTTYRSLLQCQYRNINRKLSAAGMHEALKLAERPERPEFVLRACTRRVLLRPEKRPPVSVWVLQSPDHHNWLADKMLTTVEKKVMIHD
# Chain of 5-HT1D (P28221 whole entry, species assumed): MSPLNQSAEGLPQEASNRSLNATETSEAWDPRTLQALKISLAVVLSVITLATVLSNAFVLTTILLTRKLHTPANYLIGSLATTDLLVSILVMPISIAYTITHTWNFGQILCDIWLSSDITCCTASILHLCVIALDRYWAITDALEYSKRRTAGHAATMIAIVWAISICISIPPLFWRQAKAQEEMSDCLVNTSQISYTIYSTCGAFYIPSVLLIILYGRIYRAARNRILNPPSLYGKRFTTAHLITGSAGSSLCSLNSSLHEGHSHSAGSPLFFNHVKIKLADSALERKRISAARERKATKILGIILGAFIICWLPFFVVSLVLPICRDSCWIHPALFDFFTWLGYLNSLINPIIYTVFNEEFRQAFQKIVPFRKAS
# Chain of Dopamine D2 (P14416 whole entry): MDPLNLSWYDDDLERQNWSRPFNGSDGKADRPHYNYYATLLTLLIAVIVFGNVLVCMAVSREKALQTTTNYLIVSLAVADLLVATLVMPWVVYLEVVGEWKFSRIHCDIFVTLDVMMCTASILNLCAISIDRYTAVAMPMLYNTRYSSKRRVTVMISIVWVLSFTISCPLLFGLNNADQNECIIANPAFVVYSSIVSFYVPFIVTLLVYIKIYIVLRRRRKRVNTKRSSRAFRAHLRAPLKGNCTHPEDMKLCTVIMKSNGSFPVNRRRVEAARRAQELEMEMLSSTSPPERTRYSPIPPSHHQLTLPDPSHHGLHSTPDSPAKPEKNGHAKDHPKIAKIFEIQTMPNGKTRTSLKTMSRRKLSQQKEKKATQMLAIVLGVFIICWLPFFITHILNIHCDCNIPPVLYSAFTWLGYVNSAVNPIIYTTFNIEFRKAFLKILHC
# Chain of Dopamine D3 (P35462 whole entry): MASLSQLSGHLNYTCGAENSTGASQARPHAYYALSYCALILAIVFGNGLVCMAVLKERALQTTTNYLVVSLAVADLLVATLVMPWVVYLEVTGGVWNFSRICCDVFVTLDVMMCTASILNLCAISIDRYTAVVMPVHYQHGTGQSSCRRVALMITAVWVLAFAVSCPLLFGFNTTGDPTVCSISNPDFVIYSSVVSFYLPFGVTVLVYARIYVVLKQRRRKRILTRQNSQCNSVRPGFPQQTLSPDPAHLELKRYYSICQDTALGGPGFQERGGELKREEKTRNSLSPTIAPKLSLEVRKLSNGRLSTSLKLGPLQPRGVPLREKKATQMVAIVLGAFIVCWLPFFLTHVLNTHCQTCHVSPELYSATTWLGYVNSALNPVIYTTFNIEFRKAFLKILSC
# Chain of 5-HT2A (P28223 whole entry, species assumed): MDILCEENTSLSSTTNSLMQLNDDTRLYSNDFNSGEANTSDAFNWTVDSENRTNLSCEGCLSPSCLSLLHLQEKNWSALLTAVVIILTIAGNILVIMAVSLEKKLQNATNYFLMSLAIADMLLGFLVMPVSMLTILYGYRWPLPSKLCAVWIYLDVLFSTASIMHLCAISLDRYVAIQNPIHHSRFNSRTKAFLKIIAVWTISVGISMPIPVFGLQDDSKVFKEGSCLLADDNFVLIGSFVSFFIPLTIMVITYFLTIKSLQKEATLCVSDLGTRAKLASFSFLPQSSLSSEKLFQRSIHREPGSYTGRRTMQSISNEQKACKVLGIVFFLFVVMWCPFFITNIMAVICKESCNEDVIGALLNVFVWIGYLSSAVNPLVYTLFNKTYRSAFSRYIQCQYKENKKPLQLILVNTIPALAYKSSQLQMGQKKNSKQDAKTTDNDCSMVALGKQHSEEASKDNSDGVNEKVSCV
# Chain of 5-HT2B (P41595 whole entry, species assumed): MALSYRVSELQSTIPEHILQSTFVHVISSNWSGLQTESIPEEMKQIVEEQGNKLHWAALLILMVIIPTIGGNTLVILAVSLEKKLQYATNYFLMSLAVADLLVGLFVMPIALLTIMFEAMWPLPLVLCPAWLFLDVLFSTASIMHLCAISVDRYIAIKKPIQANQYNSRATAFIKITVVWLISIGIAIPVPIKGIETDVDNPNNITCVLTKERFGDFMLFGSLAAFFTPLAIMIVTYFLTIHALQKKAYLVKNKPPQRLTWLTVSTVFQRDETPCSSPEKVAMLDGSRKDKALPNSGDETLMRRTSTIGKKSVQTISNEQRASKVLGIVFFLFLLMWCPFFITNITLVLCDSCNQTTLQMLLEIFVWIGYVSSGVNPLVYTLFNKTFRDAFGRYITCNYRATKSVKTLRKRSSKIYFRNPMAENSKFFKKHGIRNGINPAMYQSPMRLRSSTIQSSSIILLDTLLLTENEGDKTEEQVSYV
# Chain of 5-HT1B (P28222 whole entry, species assumed): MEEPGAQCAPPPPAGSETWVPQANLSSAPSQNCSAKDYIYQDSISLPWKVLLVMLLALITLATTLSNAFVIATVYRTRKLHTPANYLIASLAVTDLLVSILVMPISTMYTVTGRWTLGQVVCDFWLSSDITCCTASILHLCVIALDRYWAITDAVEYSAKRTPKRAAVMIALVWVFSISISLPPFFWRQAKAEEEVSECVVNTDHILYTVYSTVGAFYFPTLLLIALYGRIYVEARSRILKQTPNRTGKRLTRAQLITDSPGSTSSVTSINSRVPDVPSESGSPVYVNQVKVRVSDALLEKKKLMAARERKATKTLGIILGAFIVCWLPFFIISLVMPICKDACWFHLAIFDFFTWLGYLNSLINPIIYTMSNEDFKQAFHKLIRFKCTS
smiles,measurement,setting,value
"CN1CCN(c2cccc3cc(S(=O)(=O)c4cccc(F)c4)cnc23)CC1 [GSK215083, 3-[(3-fluorophenyl)sulfonyl]-8-(4-methyl-1-piperazinyl)quinoline]",Ki,"[1]; human recombinant 5-HT6 receptor stably expressed in the HeLa cell line, [^3H]LSD as radioligand",0.151 nM
same,selectivity for the human 5-HT6 receptor,[1]; over other receptors screened to date,selective for the human 5-HT6 receptor over other receptors screened to date
same,cortex to cerebellum ratio,5-HT6 receptors [2]; [4],1 to 1
same,striatum to cerebellum ratio,5-HT6 receptors [2]; [4],1.1 to 1
same,cortex to cerebellum ratio,5-HT6 receptors [2]; [5],1.2 to 1
same,striatum to cerebellum ratio,5-HT6 receptors [2]; [5],1.5 to 1
same,cortex to cerebellum ratio,5-HT6 receptors [2]; [6],1.1 to 1
same,striatum to cerebellum ratio,5-HT6 receptors [2]; [6],1.3 to 1
same,Ki,5-HT2A,0.724 nM
same,Ki,5-HT1D,69.2 nM
same,Ki,5-HT2C,17.8 nM
same,Ki,5-HT1B,105 nM
same,Ki,5-HT1A,> 7080 nM
same,Ki,Dopamine D2,912 nM
same,Ki,Dopamine D3,977 nM
same,Ki,5-HT2B,9.12 nM
same,Ki,α1B adrenoreceptor,977 nM
same,Ki,5-HT7,> 10000 nM
"[11CH3]N1CCN(c2cccc3cc(S(=O)(=O)c4cccc(F)c4)cnc23)CC1 [[^11C]GSK215083, [^11C-N-methyl]-3-(3-Fluoro-benzenesulfonyl)-8-(4-methyl-piperazin-1-yl)-quinoline]",concentration in cerebellum,5-HT6 receptors [3]; pig brain,low
same,rank order of regional brain concentrations,5-HT6 receptors [3]; pig brain,striatum>cortical regions>cerebellum
same,time of peak regional tissue concentrations post injection,"5-HT6 receptors [3]; pig brain, intravenous 1 minute bolus",approximately 20 min
same,brain entry,"5-HT6 receptors [3]; pig, intravenous 1 minute bolus",readily enters the brain
same,cortex to cerebellum ratio,5-HT6 receptors [2]; [7],1.5 to 1
same,striatum to cerebellum ratio,5-HT6 receptors [2]; [7],2 to 1
